The results in this text go back to US5464617A, “β-lactam compounds” (Hoffmann-La Roche Inc., priority 1994, dated 1995).

In one assay the test system is E. coli 1346. Briefly: Antibacterial activity of the products per se, serial dilution method in liquid medium (Test E). Conditions: product per se; for MIC E. coli 1346: Table 3, liquid medium; for MIC E. coli 1346 (E): Table 4, test E. The class given is cell-based. An excerpt:
The antibacterial activity of the products per se is illustrated on the basis of Table 3 hereinafter, the minimum inhibitory concentration […] in vitro against E. coli 1346 being determined using the serial dilution method in liquid medium: […]

Assay [1] has as its system Citrobacter freundii 1982. Briefly: MIC in vitro of a 1:4 combination of ceftriaxone with a compound of formula I (Test D). The class given is cell-based. Conditions: 1:4 combination of ceftriaxone with the compound; for MIC C. freundii 1982: Table 2; for MIC C. freundii 1982 (D): Table 4, test D. The procedure:
The minimum inhibitory concentration in vitro ([…]) of a 1:4 combination of ceftriaxone with a compound of formula I against Citrobacter freundii 1982 was measured and compiled in Table 2 hereinafter.

In brackets after ≈: the same amount, converted by molar mass. Where a name gives a salt, the structure may show the parent alone.

As to `Cn1nnnc1SCC1=C(C(=O)O)N2C(=O)[C@@H]3[C@H]2[C@H](C1)CN3C(=O)Nc1ccc(O)cc1` [18(a), (1aS,3aR,6bR)-2-(4-Hydroxy-phenylcarbamoyl)-5-(1-methyl-1H-tetrazol-5-ylsulphanylmethyl)-1-oxo-1a,2,3,3a,4,6b-hexahydro-1H-2,6a-diazacyclobut[cd]indene-6-carboxylic acid sodium salt], in the assay on E. coli 1346, the “MIC E. coli 1346” value came to 32 µg/mL. Besides, the “MIC C. freundii 1982” value in assay [1] came to 0.25 µg/mL.

For the compound `O=C([O-])C[n+]1ccc(SCC2=C(C(=O)O)N3C(=O)[C@H]4NC[C@@H](C2)[C@H]43)cc1` [Example 50, (1aS,3aR,6bR)-[4-(6-Carboxy-1-oxo-1a,2,3,3a,4,6b-hexahydro-1H-2,6a-diazacyclobut[cd]indene-5-ylmethylsulphanyl)-pyridin-1-ylio]acetatetrifluoroacetate], in the assay with E. coli 1346, the “MIC E. coli 1346 (E)” value worked out at 4 µg/mL (≈ 10.7 µM). Further, the “MIC C. freundii 1982 (D)” value in assay [1] came to 2 µg/mL.

For the compound `Cn1nnnc1SCC1=C(C(=O)O)N2C(=O)[C@@H]3[C@H]2[C@H](C1)CN3C(=O)NCCC(=O)OC(C)(C)C` [18(f), (1aS,3aR,6bR)-2-(2-t-Butoxycarbonyl-ethylcarbarmoyl)-5-(1-methyl-1H-tetrazol-5-ylsulphanylmethyl)-1-oxo-1a,2,3,3a,4,6b-hexahydro-1H-2,6a-diazacyclobut[cd]indene-6-carboxylic acid sodium salt], the “MIC E. coli 1346 (E)” value against E. coli 1346 is 4 µg/mL. For the same compound, the “MIC C. freundii 1982 (D)” value in assay [1] is 1 µg/mL.

Turning to `COC(=O)CN1C[C@H]2CC(COC(N)=O)=C(C(=O)O)N3C(=O)[C@@H]1[C@@H]23` [59(b), (1aS,3aR,6bR)-5-Carbamoyloxymethyl-2-methoxycarbonylmethyl-1-oxo-1a,2,3,3a,4,6b-hexahydro-1H-2,6a-diazacyclobut[cd]indene-6-carboxylic acid sodium salt], the “MIC E. coli 1346 (E)” value against E. coli 1346 is 2 µg/mL. Also, in assay [1], the “MIC C. freundii 1982 (D)” value turned out to be 0.5 µg/mL.

For the compound `Cc1nnc(SC2=C(C(=O)O)N3C(=O)[C@H]4NC[C@@H](C2)[C@H]43)s1` [Example 2(b), (1aS,3aR,6bR)-5-(5-Methyl-1,3,4-thiadiazol-2-ylsulphanyl)-1-oxo-1a, 2,3,3a,4,6b-hexahydro-1H-2,6a-diazcyclobut[cd]indene-6-carboxylic acid trifluoroacetate], in the assay with E. coli 1346, the “MIC E. coli 1346” value came out at 4 µg/mL. Besides, the “MIC C. freundii 1982” value in assay [1] was found to be 1 µg/mL.

On to `Cn1nc[n+](C)c1CSC1=C(C(=O)[O-])N2C(=O)[C@@H]3[C@H]2[C@H](C1)CN3C(=O)C(F)(F)F` [3(an), (1aS,3aR,6bR)-5-[(1,4-Dimethyl-1H-1,2,4-triazol-5-ylio)methylsulphanyl]-1-oxo-2-trifluoroacetyl-1a,2,3,3a,4,6b-hexahydro-1H-2,6a-diazacyclobut[cd]indene-6-carboxylate], for which the “MIC E. coli 1346 (E)” value against E. coli 1346 was 32 µg/mL (≈ 74.2 µM). Also, in assay [1], the “MIC C. freundii 1982 (D)” value came out at 32 µg/mL.

With `Cc1nnc(SCC2=C(C(=O)O)N3C(=O)[C@@H]4[C@H]3[C@H](C2)CN4C(=O)CSc2ccncc2)s1` [65(c), (1aS,3aR,6 bR)-5-(S-Methyl-1,3,4-thiadiazol-2-ylsulphanylmethyl)-1-oxo-2-(pyridin-4-ylsulphanylacetyl)-1a,2,3,3a,4,6b-hexahydro-1H-2,6a-diazacyclobut[cd]indene-6-carboxylic acid sodium salt], the “MIC E. coli 1346 (E)” value against E. coli 1346 amounted to 2 µg/mL. Moreover, the “MIC C. freundii 1982 (D)” value in assay [1] stood at 1 µg/mL.

With `Cn1nnnc1SCC1=C(C(=O)O)N2C(=O)[C@@H]3[C@H]2[C@H](C1)CN3C(=O)NCc1ccc(O)cc1` [18(h), (1aS,3aR,6bR)-2-(4-Hydroxy-benzylcarbamoyl)-5-(1-methyl-1H-tetrazol-5-ylsulphanylmethyl)-1-oxo-1a,2,3,3a,4,6b-hexahydro-1H-2,6a-diazacyclobut[cd]indene-6-carboxylic acid sodium salt], in the assay with E. coli 1346, the “MIC E. coli 1346 (E)” value worked out at 16 µg/mL. The “MIC C. freundii 1982 (D)” value in assay [1] turned out to be 0.5 µg/mL.

Consider `CS(=O)(=O)OC1=C(C(=O)O)N2C(=O)[C@@H]3[C@H]2[C@H](C1)CN3C(=O)NCc1ccc(O)c(O)c1` [9(d), (1aS,3aR,6bR)-2-(3,4-Dihydroxy-benzylcarbamoyl)-5-methylsulphonyloxy-1-oxo-1a,2,3,3a,4,6b-hexahydro-1H-2,6a-diazacyclobut[cd]indene-6-carboxylic acid sodium salt], for which the “MIC E. coli 1346” value against E. coli 1346 was found to be 32 µg/mL. Further, in assay [1], the “MIC C. freundii 1982” value was determined as 2 µg/mL.

For the compound `O=C(O)C1=C(CSc2ccncc2)O[C@@H]2CN[C@@H]3C(=O)N1[C@@H]32` [Example 29(b), (1aS,3aR,6bS)-1-Oxo-5-(pyridin-4-ylsulphanylmethyl)-1,1a,2,3,3a,6b-hexahydro-4-oxa-2,6a-diazacyclobut[cd]indene-6-carboxylic acid], the “MIC E. coli 1346 (E)” value against E. coli 1346 was more than 16 µg/mL. Further, in assay [1], the “MIC C. freundii 1982 (D)” value was found to be 2 µg/mL.

In the case of `CNC(=O)OCC1=C(C(=O)O)N2C(=O)[C@H]3NC[C@@H](C1)[C@H]32` [Example 97, (1aS,3aR,6bR)-5-Methylcarbamoyloxymethyl-1-oxo-1a,2,3,3a,4,6b-hexahydro-1H-2,6a-diazacyclobut[cd]indene-6-carboxylic acid trifluoroacetate], in the assay on E. coli 1346, the “MIC E. coli 1346 (E)” value was 4 µg/mL. The “MIC C. freundii 1982 (D)” value in assay [1] was 1 µg/mL.

On to `O=C([O-])C[n+]1ccc(SCC2=C(C(=O)O)N3C(=O)[C@@H]4[C@H]3[C@H](C2)CN4C(=O)NCc2ccccc2)cc1` [Example 51, (1aS,3aR,6bR)-[4-(2-Benzylcarbamoyl-6-carboxy-1-oxo-1a,2,3,3a,4,6b-hexahydro-1H-2,6a-diazacyclobut[cd]inden-5-ylmethylsulphanyl)-pyridin-2-ylio]-acetate sodium salt], for which the “MIC E. coli 1346 (E)” value against E. coli 1346 is more than 32 µg/mL. Moreover, the “MIC C. freundii 1982 (D)” value in assay [1] is 1 µg/mL.

With `Cc1nnc(SCC2=C(C(=O)O)N3C(=O)[C@@H]4[C@H]3[C@@H](CN4C(=O)CSc3nnnn3C)O2)s1` [Example 34, (1aS,3aR,6bS)-2-(1-Methyl-1H-tetrazol-5-ylsulphanylacetyl)-5-(5-methyl-1,3,4-thiadiazol-2-ylsulphanylmethyl)-1-oxo-1,1a,2,3,3a,6b-hexahydro-4-oxa-2,6a-diazacyclobut[cd]indene-6-carboxylic acid], the “MIC E. coli 1346 (E)” value in the assay on E. coli 1346 turned out to be 8 µg/mL (≈ 16.1 µM). Moreover, in assay [1], the “MIC C. freundii 1982 (D)” value amounted to 1 µg/mL.

For the compound `C=CCN1C[C@H]2OC(CSc3nnnn3C)=C(C(=O)O)N3C(=O)[C@@H]1[C@@H]23` [Example 30, (1aS,3aR,6bS)-2-Allyl-5-(1-methyl-1H-tetrazol-5-ylsulphanylmethyl)-1-oxo-4-oxa-1,1a,2,3,3a,6b-hexahydro-2,6a-diazacyclobut[cd]indene-6-carboxylic acid sodium salt], the “MIC E. coli 1346 (E)” value in the assay with E. coli 1346 came out at 8 µg/mL. Further, the “MIC C. freundii 1982 (D)” value in assay [1] came out at 1 µg/mL.

Take `COc1cc(CNC(=O)N2C[C@H]3CC(Sc4nnnn4C)=C(C(=O)O)N4C(=O)[C@@H]2[C@@H]34)on1` [3(h), (1aS,3aR,6bR)-2-(3-Methoxy-isoxazol-5-ylmethylcarbamoyl)-5-(1-methyl-1H-tetrazol-5-ylsulphanyl)-1-oxo-1a,2,3,3a,4,6b-hexahydro-1H-2,6a-diazacyclobut[cd]indene-6-carboxylic acid sodium salt]: the “MIC E. coli 1346” value against E. coli 1346 turned out to be 16 µg/mL. Further, the “MIC C. freundii 1982” value in assay [1] is 2 µg/mL.

For `O=C(NCc1ccc(O)cc1)OCC1=C(C(=O)O)N2C(=O)[C@@H]3[C@H]2[C@H](C1)CN3C(=O)C(F)(F)F` [102(b), (1aS,3aR,6bR)-5-[(4-Hydroxy-benzyl)-carbamoyloxymethyl]-2-trifluoroacetyl-1-oxo-1a,2,3,3a,4,6b-hexahydro-1H-2,6a-diazacyclobut[cd]indene-6-carboxylicacid sodium salt], in the assay on E. coli 1346, the “MIC E. coli 1346 (E)” value worked out at 1 µg/mL. Further, in assay [1], the “MIC C. freundii 1982 (D)” value was found to be 2 µg/mL.

In the case of `NC(=O)c1ccc(NC(=O)N2C[C@H]3CC(Sc4ccncc4)=C(C(=O)O)N4C(=O)[C@@H]2[C@@H]34)cc1` [3(n), (1aS,3aR,6bR)-2-(4-Carbamoyl-phenylcarbamoyl)-1-oxo-5-(pyridin-4-ylsulphanyl)-1a,2,3,3a,4,6b-hexahydro-1H-2,6a-diazacyclobut[cd]indene-6-carboxylic acid sodium salt], in the assay with E. coli 1346, the “MIC E. coli 1346 (E)” value was more than 32 µg/mL. For the same compound, the “MIC C. freundii 1982 (D)” value in assay [1] amounted to 1 µg/mL.

For `CC(=O)N1C[C@H]2CC(CN=[N+]=[N-])=C(C(=O)O)N3C(=O)[C@@H]1[C@@H]23` [83(a), (1aS,3aR,6bR)-2-Acetyl-5-azidomethyl-1-oxo-1a,2,3,3a,4,6b-hexahydro-1H-2,6a-diazacyclobut[cd]indene-6-carboxylic acid sodium salt], the “MIC E. coli 1346 (E)” value against E. coli 1346 came out at 2 µg/mL. Further, the “MIC C. freundii 1982 (D)” value in assay [1] came to 0.5 µg/mL.

For `CC(=O)N1C[C@H]2CC(CSc3nc(-c4cccnc4)cs3)=C(C(=O)O)N3C(=O)[C@@H]1[C@@H]23` [67(a), (1aS,3aR,6bR)-2-Acetyl-1-oxo-5-(4-pyridin-3-yl-thiazol-2-ylsulphanylmethyl)-1a,2,3,3a,4,6b-hexahydro-1H-2,6a-diazacyclobut[cd]indene-6-carboxylic acid sodium salt], the “MIC E. coli 1346 (E)” value in the assay with E. coli 1346 was 0.5 µg/mL. Moreover, the “MIC C. freundii 1982 (D)” value in assay [1] is 8 µg/mL.

For the compound `CS(=O)(=O)OC1=C(C(=O)O)N2C(=O)[C@@H]3[C@H]2[C@H](C1)CN3C(=O)NCc1ccc(S(N)(=O)=O)cc1` [9(h), (1aS,3aR,6bR)-5-Methylsulphonyloxy-1-oxo-2-(4-sulphamoylbenzylcarbamoyl)-1a,2,3,3a,4,6b-hexahydro-1H-2,6a-diazacyclobut[cd]indene-6-carboxylic acid sodium salt], the “MIC E. coli 1346” value with E. coli 1346 is 32 µg/mL. Moreover, the “MIC C. freundii 1982” value in assay [1] stood at 0.5 µg/mL.
